According to ChEMBL document CHEMBL1687704, “Benzimidazole-2-pyrazole HIF Prolyl 4-Hydroxylase Inhibitors as Oral Erythropoietin Secretagogues” (ACS Med Chem Lett, 2010):

Legend:
[1] = Plasma concentration in Balb-C mouse at 100 umol/kg, po after 1 hr; format: ADME, organism-based
[2] = Plasma concentration in Balb-C mouse at 100 umol/kg, po after 6 hrs; format: ADME, organism-based

Compound O=C(O)c1cnn(-c2nc3cc(C(F)(F)F)c(F)cc3[nH]2)c1 has a concentration at 1 h [1] of 14 µM and a concentration at 6 h [2] of 0.1 µM.
